Assay results as given in paper PMC3753754, “Andrographis paniculata Extract and Andrographolide Modulate the Hepatic Drug Metabolism System and Plasma Tolbutamide Concentrations in Rats” (Evidence-based Complementary and Alternative Medicine : eCAM, 2013).
Marks after values point to notes of the source that are not given here.

Legend:
[1] = Rat growth: body weight and liver weight after 5 days of daily oral dosing; format: in vivo, Sprague-Dawley rats; conditions: rats, oral 2 g/kg APE or 50 mg/kg AND daily for 5 days
Description: Seven-week-old male Sprague-Dawley rats cannulated in the jugular vein were purchased from the Bio LASCO Experimental Animal Center (Taipei, Taiwan). The animals were fed a standard rat diet and were randomly assigned into control, APE-treated, and andrographolide-treated groups (n = 5). Rats were housed in plastic cages in a room kept at 23 ± 1°C and 60 ± 5% relative humidity with a 12-hour light and dark cycle. Food and drinking water were available ad libitum. Control rats were orally administered methyl cellulose. […] After the 5th daily dose, rats were deprived of food overnight. On day 6, a 20 mg/kg oral dose of tolbutamide, as a solution in Cremophor EL (polyoxyl 35 hydrogenated castor oil, Sigma)/ethanol/water (30/10/60, v/v/v), was administered to each rat. After the administration of tolbutamide, serial blood samples were collected up to 12 h after dosing from each rat. The animals were then killed by exsanguination, and the livers were collected.
(§1) All animals were killed by exsanguination via the abdominal aorta while under carbon dioxide (CO2/O2, 70%/30%) anesthesia. Heparin was used as the anticoagulant. Plasma was separated from the blood by centrifugation (1750 ×g) at 4°C for 20 min. The liver from each animal was excised, weighed, and stored at −80°C. This research has received ethical approval from the institutional animal ethics committee of China Medical University, Taichung, Taiwan.

[2] = test system: CYP2D; assay: Dextromethorphan O-deethylation in liver microsomes of treated rats; format: in vivo; conditions: rat liver microsomes; oral 2 g/kg APE or 50 mg/kg AND daily for 5 days
Description: (§2) Liver was homogenized (1 : 4, w/v) in an ice-cold potassium phosphate buffer (pH 7.4) containing 7.4 mM K2HPO4, 2.6 mM KH2PO4, 1.15% KCl, and 1 mM phenylmethylsulfonyl fluoride (PMSF). Tissue homogenates were centrifuged at 10,000 ×g for 30 min at 4°C. The resulting supernatant was then centrifuged at 105,000 ×g for 1 h at 4°C. The microsomes thus obtained were washed several times to get rid of possible tolbutamide contamination and this can avoid tolbutamide interference of CYP activity, and the microsomes were then suspended in potassium phosphate buffer (pH 7.7) containing 7.5 mM K2HPO4, 14.5 mM KH2PO4, and 1 mM EDTA. […] Metabolites of each CYP enzyme reaction were determined by LC/MS as reported previously. The contents of total CYP and cytochrome b5 were quantified by the method of Omura and Sato [29]. Enzyme activity is expressed as picomoles of metabolite formed per minute per milligram of protein. The NADPH-CYP reductase activity was measured as described by Phillips and Langdon with the use of cytochrome c as the substrate. The microsomal protein concentration was determined by using a Coomassie Plus protein assay kit (Pierce, Rockford, IL, USA).

[3] = test system: CYP1A1, CYP1A2, CYP2C6, CYP2C11, and CYP3A2; assay: RT-PCR of hepatic CYP isozyme mRNA in treated rats; format: in vivo; conditions: rat liver, APE or andrographolide for 5 days
Text: Total RNA in liver samples was extracted by using the Trizol reagent (1 : 20, w/v). […] The sequences for the PCR primers were as follows: for CYP1A1 (forward: 5′-[…]-3′; reverse: 5′-[…]-3′), CYP1A2 (forward: 5′-[…]-3′; reverse: 5′-[…]-3′), CYP2C6 (forward: 5′-[…]-3′; reverse: 5′-[…]-3′), CYP2C11 (forward: 5′-[…]-3′; reverse: 5′-[…]-3′), CYP2D1 (forward: 5′-[…]-3′; reverse: 5′-[…]-3′), CYP2E1 (forward: 5′-[…]-3′; reverse: 5′-[…]-3′), CYP3A1 (forward: 5′-[…]-3′; reverse: 5′-[…]-3′), CYP3A2 (forward: 5′-[…]-3′; reverse: 5′-[…]-3′), and P-glycoprotein (forward: 5′-[…]-3′; reverse: 5′-[…]-3′). The PCR for CYP1A1 was performed as follows: 5 min at 95°C and then 35 cycles of 30 s at 94°C, 30 s at 54°C, and 60 s at 72°C. For CYP1A2 and CYP3A2 amplification, the PCR cycle number was 30 times through a 30 s denaturing step at 94°C, a 30 s annealing step at 55°C, and a 30 s elongation step at 72°C. For CYP2D1 and CYP3A1, the PCR cycle number was 30 times through a 60 s denaturing step at 94°C, a 60 s annealing step at 56°C, and a 125 s elongation step at 72°C. […] The PCR amplicons were then electrophoresed in 1% agarose gels containing 40 mM Tris/20 mM glacial acetic acid/2 mM EDTA buffer, and the relative densities of the PCR products were quantitated by use of Image Gauge software (Fujifilm, Tokyo, Japan). […]

[4] = Plasma aminotransferases (AST, ALT) of treated rats; format: in vivo, Sprague-Dawley rats
Description: as §1
Plasma glucose was determined by use of enzymatic kits purchased from Audit Diagnostics Co. (Cork, Ireland). Plasma aspartate aminotransferase (AST) and alanine aminotransferase (ALT) activities were measured by using commercial kits purchased from Randox Laboratories (Antrim, UK).

[5] = test system: CYP3A; assay: Midazolam 1-hydroxylation in liver microsomes of treated rats; format: in vivo; conditions: rat liver microsomes; oral 2 g/kg APE or 50 mg/kg AND daily for 5 days
Description: as §2

[6] = test system: Cytochrome P450; assay: Total CYP content in liver microsomes of treated rats; format: in vivo; conditions: rat liver microsomes; oral 2 g/kg APE or 50 mg/kg AND daily for 5 days
Description: as §2

[7] = test system: Glutathione S-transferase; assay: GST activity in liver of treated rats; format: in vivo; conditions: rat liver; oral 2 g/kg APE or 50 mg/kg AND daily for 5 days
Description: The microsomal UGT activity was determined by using p-nitrophenol as the substrate. The rate of formation of p-nitrophenol glucuronic acid was measured by HPLC/UV [31]. GST activity was determined spectrophotometrically by measuring the formation rate of GSH conjugates.

[8] = test system: CYP2C; assay: Diclofenac 4-hydroxylation in liver microsomes of treated rats; format: in vivo; conditions: rat liver microsomes; oral 2 g/kg APE or 50 mg/kg AND daily for 5 days
Description: as §2

[9] = rats, oral 2 g/kg APE or 50 mg/kg AND daily for 5 days, mean ± SD, n = 5

Dextromethorphan O-deethylase (2D) [2]: 79.1 ± 30.4 pmol/min/mg protein
mRNA levels of CYP1A1, CYP1A2, CYP2C6, CYP2C11, and CYP3A2 [3]: induced
Midazolam 1-hydroxylase (3A) [5]: 320 ± 84^ab pmol/min/mg protein
Cytochrome P450 content [6]: 674 ± 64^b pmol/mg protein
Glutathione S-transferase activity [7]: 634 ± 62 nmol/min/mg protein
Diclofenac 4-hydroxylase (2C) [8]: 43.8 ± 10.5^b pmol/min/mg protein
Compound: C=C1CC[C@@H]2[C@](C)(CO)[C@H](O)CC[C@@]2(C)[C@@H]1C/C=C1/C(=O)OC[C@H]1O [andrographolide, Andrographolide]
Relative liver weight ([1]; (liver weight/body weight) × 100): 3.8 ± 0.3%
Body weight, Final ([1]; mean ± SD, n = 5): 332 ± 13^a g
Liver weight ([1]; mean ± SD, n = 5): 12.8 ± 1.5 g
Effect on rat liver function ([4]; 2 g/kg APE and 50 mg/kg AND, plasma AST and ALT): no deleterious effect
Plasma aminotransferases, ALT [4, 9]: 15.8 ± 8.2 U/L
Plasma aminotransferases, AST [4, 9]: 27.7 ± 4.4 U/L
